These results are taken from patent US8252935B2, “Piperidinyl and piperazinyl modulators of γ-secretase” (Janssen Pharmaceutica N.V., priority 2007, dated 2012).

This assay deals with γ-secretase (Homo sapiens, UniProt P49768). Kind of assay: Screening for γ-secretase-modulating activity in SKNBE2 cells carrying APP 695 wild type (assay of Citron et al 1997). It is filed as cell-based. Conditions: SKNBE2, @ 1 uM; SKNBE2 cells carrying the APP 695 wild type. As for the experimental part:
Screening was carried out using SKNBE2 cells carrying the APP 695—wild type, grown in DMEM/NUT-mix F12 (HAM) provided by Gibco (cat no. 31330-38) containing 5% Serum/Fe supplemented with 1% non-essential amino acids. Cells were grown to near confluency. The screening was performed using the assay as described in Citron et al (1997) Nature Medicine 3: 67.

As a reminder, the inhibition is the change of the read-out against control, counted positive when it falls. A lower inhibition goes with a weak effect. Turning to `CC(C)C[C@@H](C(=O)O)c1cc(-c2ccc(C(F)(F)F)cc2)cc([C@@H]2CC[C@H](C(F)(F)F)NC2)c1` (relative stereo) [Example 35, 4-Methyl-2-[4′-trifluoromethyl-5-(6-trifluoromethyl-piperidin-3-yl)-biphenyl-3-yl]-pentanoic acid], testing at 1 µM gave an inhibition of 8%.
For `CC(C)C[C@H](C(=O)O)c1cc(-c2ccc(C(F)(F)F)cc2)cc([C@H]2CC[C@@H](C(F)(F)F)NC2)c1` (single isomer, unassigned) [Example 36, 4-Methyl-2-[4′-trifluoromethyl-5-(6-trifluoromethyl-piperidin-3-yl)-biphenyl-3-yl]-pentanoic acid] the value was 40%; for `CC(C)CCC(c1ccc(C(F)(F)F)cc1)N1CCCC(c2cc(-c3ccc(C(F)(F)F)cc3)cc(C(CC(C)C)C(=O)O)c2)C1` (single isomer, unassigned) [Example 56, (R*) 4-Methyl-2-(5-{1-[4-methyl-1-(4-trifluoromethyl-phenyl)-pentyl]-piperidin-3-yl}-4′-trifluoromethyl-biphenyl-3-yl)-pentanoic acid], 75%.
Next, `CC(C)CC(C(=O)O)c1cc(-c2ccc(C(F)(F)F)cc2)cc(C2CCCN(C(C)c3ccc(C(F)(F)F)cc3)C2)c1` (single isomer, unassigned) [Example 63, (S*)-4-Methyl-2-(4′-trifluoromethyl-5-{1-[1-(4-trifluoromethyl-phenyl)-ethyl]-piperidin-3-yl}-biphenyl-3-yl)-pentanoic acid]: 44%; `CCC1CCCCN1c1cc(-c2ccc(C(F)(F)F)cc2)cc(C(CC(C)C)C(=O)O)c1` (stereo not drawn) [Example 2, 2-[5-(2-Ethyl-piperidin-1-yl)-4′-trifluoromethyl-biphenyl-3-yl]-4-methyl-pentanoic acid]: 45%; `CC(C)CC(C(=O)O)c1cc(-c2ccc(C(F)(F)F)cc2)cc(N2CCCCC2C)c1` (stereo not drawn) [Example 3, 4-Methyl-2-[5-(2-methyl-piperidin-1-yl)-4′-trifluoromethyl-biphenyl-3-yl]-pentanoic acid]: 23%.
`CC(C)CC(C(=O)O)c1cc(-c2ccc(C(F)(F)F)cc2)cc(N2CCC(F)(F)CC2)c1` (stereo not drawn) [Example 5, 2-(5-(4,4-difluoropiperidin-1-yl)-4′-(trifluoromethyl)biphenyl-3-yl)-4-methylpentanoic acid] came in with an inhibition at 1 µM of 8%.
Next, `CC(C)CC(C(=O)O)c1cc(-c2ccc(C(F)(F)F)cc2)cc(C2CCCC(C)N2)c1` (stereo not drawn) [Example 6, 4-Methyl-2-[5-(6-methyl-piperidin-2-yl)-4′-trifluoromethyl-biphenyl-3-yl]-pentanoic acid]: 0%; `COc1ccc(CN2C(c3cc(-c4ccc(C(F)(F)F)cc4)cc(C(CC(C)C)C(=O)O)c3)CCCC2C(F)(F)F)cc1` (stereo not drawn) [Example 7, 2-{5-[1-(4-Methoxy-benzyl)-6-trifluoromethyl-piperidin-2-yl]-4′-trifluoromethyl-biphenyl-3-yl}-4-methyl-pentanoic acid]: 70%; `CC(C)CCN1CCCCC1c1cc(-c2ccc(C(F)(F)F)cc2)cc(C(CC(C)C)C(=O)O)c1` (stereo not drawn) [Example 10, 4-Methyl-2-{5-[1-(3-methyl-butyl)-piperidin-2-yl]-4′-trifluoromethyl-biphenyl-3-yl}-pentanoic acid]: 34%.
Next, `CN1C(c2cc(CC(=O)O)cc(-c3ccc(C(F)(F)F)cc3)c2)CCCC1C(F)(F)F` (stereo not drawn) [Example 11, [5-(1-Methyl-6-trifluoromethyl-piperidin-2-yl)-4′-trifluoromethyl-biphenyl-3-yl]-acetic acid]: 23%; `CC(C)CC(C(=O)O)c1cc(-c2ccc(C(F)(F)F)cc2)cc(C2CCC(C(F)(F)F)CN2C)c1` (stereo not drawn) [Example 13, 4-Methyl-2-[5-(1-methyl-5-trifluoromethyl-piperidin-2-yl)-4′-trifluoromethyl-biphenyl-3-yl]-pentanoic acid]: 30%.
